Patent US20080221047A1, “Aminoakyl methacrylate copolymer E for maintaining solubility of poorly-soluble drug” (ASTELLAS PHARMA INC.,, priority 2006, published 2008)

Tests used:
[1] = Reprecipitation test for compound A with copolymer solubilized with citric acid, Experimental Example 4; format: physicochemical; settings: compound A in acetonitrile; fluid containing copolymer E of Example 8 (citric acid)
Method: (§1) Each (50 mg) of the aminoalkyl methacrylate copolymers E having a solubility enhanced with acid prepared in Examples 1 and 8 was dissolved in 500 mL of a second fluid for disintegrating test used in a disintegrating test described in the Japanese Pharmacopoeia fifteenth edition. For comparison, 500 mL of a second fluid for disintegrating test used in a disintegrating test described in the Japanese Pharmacopoeia fifteenth edition without such additives was prepared.
(§2) To each vessel, 2 mL of a solution of compound A (25 mg/mL) in acetonitrile was added, and an automated dissolution tester (Toyama Sangyo Co., Ltd.) was used to carry out a reprecipitation test for compound A, in accordance with a dissolution test, method 2, described in the Japanese Pharmacopoeia. The ultraviolet absorbance of compound A was measured at a wavelength of 273 nm. The paddle rotation speed was 50 rpm. The percentage dissolved was calculated on the basis that an absorbance of 0.576 when measured using a 1 mm cell was regarded as a concentration of 100 μg/mL (compound A).

[2] = Reprecipitation test for compound A with copolymers of different amounts of neutralization, Experimental Example 3; format: physicochemical; settings: compound A in acetonitrile; fluid containing copolymer E of Examples 5, 6 or 7 (every Example)
Method: Each of the aminoalkyl methacrylate copolymers E having a solubility enhanced with acid prepared in Examples 5, 6, and 7 was dissolved in 500 mL of a second fluid for dissolution test used in a dissolution test described in the Japanese Pharmacopoeia fifteenth edition.
as §2, with “The” for “The ultraviolet”

[3] = Reprecipitation (dissolution) test for compound A dissolved in polyethylene glycol 400, Experimental Example 2; format: physicochemical; settings: compound A in polyethylene glycol 400
Method: as §1, with “copolymer” for “copolymers”, “Example 1,” for “Examples 1”, “hydroxypropylmethylcellulose 2910 (TC-5E, Shin-Etsu Chemical Co., Ltd.)” for “8”, “dissolution” for “disintegrating”
as §2, with “polyethylene glycol 400 (Kanto Chemical Co., Inc.)” for “acetonitrile”, “(manufactured by Toyama” for “(Toyama”

[4] = Reprecipitation (dissolution) test for compound A dissolved in acetonitrile, Experimental Example 1; format: physicochemical
Method: as §1, with “copolymer” for “copolymers”, “Example 1, hydroxypropylmethylcellulose 2910 (TC-5E, Shin-Etsu Chemical Co., Ltd.),” for “Examples 1”, “copolyvidone (Kollidon VA-64, BASF)” for “8”
as §2, with “(manufactured by Toyama” for “(Toyama”

[5] = cited from earlier work
[6] = Reprecipitation (dissolution) test for tacrolimus dissolved in ethanol, Experimental Example 6; format: physicochemical
Method: as §1, with “(300” for “(50”, “copolymer” for “copolymers”, “Example 4,” for “Examples 1”, “hydroxypropylmethylcellulose 2910 (TC-5E, Shin-Etsu Chemical Co., Ltd.)” for “8”, “300” for “500”
To each vessel, 1 mL of a solution of tacrolimus (100 mg/mL) in ethanol was added. Samples were taken at regular intervals, and centrifuged at 3000 rpm for 15 minutes. Tacrolimus dissolved in each supernatant was measured by a high performance liquid chromatography.

[7] = fluid containing hydroxypropylmethylcellulose 2910, after 2 hours

Compound	maintenance of solubility [1]	maintenance of solubility [2]	reprecipitation ([3]; absence of additives)	percentage dissolved ([3]; fluid containing copolymer E of Example 1, after 24 hours)	percentage dissolved [3, 7]	percentage dissolved ([4]; compound A in acetonitrile added to JP second fluid containing copolymer E of Example 1 (50 mg/500 mL), after 24 hours)	percentage dissolved ([4]; compound A in acetonitrile added to JP second fluid containing copolyvidone (50 mg/500 mL), after 2 hours)	percentage dissolved ([4]; compound A in acetonitrile added to JP second fluid containing hydroxypropylmethylcellulose 2910 (50 mg/500 mL), after 2 hours)	reprecipitation ([4]; compound A in acetonitrile added to JP second fluid, absence of additives)	water solubility [5] [µg/mL]	reprecipitation ([6]; absence of additives)	percentage dissolved ([6]; fluid containing copolymer E of Example 4, after 24 hours) [%]	percentage dissolved [6, 7]
Cc1cccc(C)c1N(CC(=O)Nc1ccc(-c2ncon2)cc1)C(=O)C1CCS(=O)(=O)CC1 [compound A, N-(2,6-Dimethylphenyl)-N-(2-{[4-(1,2,4-oxadiazol-3-yl)phenyl]amino}-2-oxoethyl)tetrahydro-2H-thiopyran-4-carboxamide 1,1-dioxide]	maintained for a long time	a high solubility was maintained for a long time	reprecipitated immediately after the beginning of the test	approximately 75%	approximately 30%	approximately 75%	approximately 30%	approximately 30%	reprecipitated immediately after the beginning of the test				
C=CC[C@@H]1/C=C(\C)C[C@H](C)C[C@H](OC)[C@H]2O[C@@](O)(C(=O)C(=O)N3CCCC[C@H]3C(=O)O[C@H](/C(C)=C/[C@@H]3CC[C@@H](O)[C@H](OC)C3)[C@H](C)[C@@H](O)CC1=O)[C@H](C)C[C@@H]2OC [tacrolimus]										≤ 1	reprecipitated immediately after the beginning of the test	≥ 90	approximately 20%
